26 compounds from patent US10844023B2 (Washington University, priority 2017, dated 2020) can be followed below.

Structures are written as SMILES. Entries after “also recorded” stand apart in the source; their conditions may differ.

The test system of one assay is Mfn2 null MEFs. Description: Mitochondrial elongation (aspect ratio) fusogenicity assay. In kind it is cell-based, mouse. The conditions noted are these: mitochondrial elongation / fusion. Further details: % long compare to B: dose or concentration left out as unconfirmed.
Turning to `O=C1CC(SCCc2nc3ccccc3[nH]2)C(=O)N1c1cccc(F)c1` (centres unmarked) [D9, 3-{[2-(1H-1,3-benzodiazol-2-yl)ethyl]sulfanyl}-1-(3-fluorophenyl)pyrro-lidine-2,5-dione], the “Fusogenic activity” value is given as “failed validation in the secondary screen; also recorded: showed no true fusogenic activity”.

The same assay, now with this note: mitochondrial elongation relative to Cpd B (B01 = 100); Mfn2 null MEFs, compound overnight as printed (FIG. 48).
Consider `CC(C)(C)NC(=O)NC(=O)COC(=O)CSCc1nc2scc(-c3ccccc3)c2c(=O)[nH]1` [B07, 2-[(tert-butylcarbamoyl)amino]-2-oxoethyl 2-[({4-oxo-5-phenyl-3H,4H-thieno[2,3-d]pyrimidin-2-yl}methyl)sulfanyl] acetate], for which the “% long compare to B” value was found to be 64%.
Still for that read-out and setting: then `Cc1ccc(-c2noc(CSCCCC(=O)Nc3c(C)cccc3C)n2)cc1F` [B08, N-(2,6-dimethylphenyl)-4-({[3-(3-fluoro-4-methylphenyl)-1,2,4-oxadiazol-5-yl]methyl}sulfanyl)-butanamide], with 12%.
As to `O=C(NCCSCc1ccc(Br)s1)C1CCCN(C(=O)c2cccs2)C1` (centres unmarked) [B09, N-(2-{[(5-bromothiophen-2-yl)methyl]sulfanyl}-ethyl)-1-(thiophene-2-carbonyl)piperidine-3-carboxamide], the “% long compare to B” value was 36%.
On to `Cc1cccc(C)c1NC(=O)CCCSCc1ncc(C(C)C)o1` [B10, N-(2,6-dimethylphenyl)-4-({[5-(propan-2-yl)-1,3-oxazol-2-yl]methyl}sulfanyl)-butanamide], for which the “% long compare to B” value is recorded as 6%.
For the compound `O=C(NCCSCc1ccsc1)C1CC2CCCC(C1)C2=O` (centres unmarked) [B11, 9-oxo-N-(2-{[(thiophen-3-yl)methyl]sulfanyl}-ethyl)bicyclo[3.3.1]-nonane-3-carboxamide], the “% long compare to B” value was determined as 23%.
`Cc1ccc(-n2c(SC(C)C(=O)Nc3ccnn3C(C)C)nnc2N2CCOCC2)cc1` (centres unmarked) [C01, 2-{[4-(4-methylphenyl)-5-(morpholin-4-yl)-4H-1,2,4-triazol-3-yl]sulfanyl}-N-[1-(propan-2-yl)-1H-pyrazol-5-yl]propanamide]: the “% long compare to B” value worked out at 16%.
As to `CCCc1noc(C(C)Sc2nc3cc(C)ccc3[nH]2)n1` (centres unmarked) [C02, 5-methyl-2-{[1-(3-propyl-1,2,4-oxadiazol-5-yl)ethyl]sulfanyl}-1H-1,3-benzodiazole], the “% long compare to B” value came to 14%.
Still for that read-out and setting: then `COc1ccc(SC(C)C(=O)Nc2cc[nH]n2)cc1` (centres unmarked) [C03, 2-[(4-methoxyphenyl)sulfa-nyl]-N-(1H-pyrazol-3-yl)propanamide], with 10%.
On to `CCC(C)C1N=C2c3ccccc3N=C(SC(C)C(=O)Nc3cc(OC)cc(OC)c3)N2C1=O` (centres unmarked) [C04, 2-{[2-(butan-2-yl)-3-oxo-2H,3H-imidazo[1,2-c]quinazolin-5-yl]sulfanyl}-N-(3,5-dimethoxyphenyl)pro-panamide], for which the “% long compare to B” value is listed as −1%.
In the case of `O=C(CSCCc1ccccn1)Nc1ccc(Cl)c(Cl)c1` [C06, N-(3,4-dichlorophenyl)-2-{[2-(pyridin-2-yl)ethyl]sulfanyl}-acetamide], the “% long compare to B” value is recorded as −8%.
On the same count and under the same terms, for `O=C(CSCc1ccc(F)cc1)N1CCc2c([nH]c3ccccc23)C1c1ccc(Cl)cc1` (centres unmarked) [C07, 1-[1-(4-chlorophenyl)-1H,2H,3H,4H,9H-pyrido[3.4-b]indol-2-yl]-2-{[(4-fluorophenyl)methyl]sulfanyl}ethan-1-one] the value was 29%; for `Cc1ccc(C(C)C)c(OCCCSCc2nc3ccccc3[nH]2)c1` [C09, 2-[({3-[5-methyl-2-(propan-2-yl)phenoxy]propyl}-sulfanyl)methyl]-1H-1,3-benzodiazole], −5%.
Still for that read-out and setting: for `CC(/N=N/C(=N)SC1CC(=O)N(c2cccc(C(=O)O)c2)C1=O)c1ccccc1` (centres unmarked) [C10, 3-(2,5-dioxo-3-{[(E)-N-[(1-phenylethyl)imino]car-bamimidoyl]sul-fanyl}pyrrolidin-1-yl)benzoic acid] the value was 0%; for `Cc1ccc(NC(=O)CC2SC(NC(c3ccc(C(C)C)cc3)c3c(O)[nH]c(=O)[nH]c3=O)=NC2=O)c(C)c1` (centres unmarked) [C11, N-(2,4-dimethylphenyl)-2-(2-{[(6-hydroxy-2,4-dioxo-1,2,3,4-tetrahydropyrimidin-5-yl)[4-(propan-2-yl)phenyl]methyl]am-ino}-4-oxo-4,5-dihydro-1,3-thiazol-5-yl)acetamide], −4%; for `CCOc1ccccc1NC(=O)CSCc1cc(=O)c2ccc(C)c(C)c2[nH]1` [D01, 2-{[(7,8-dimethyl-4-oxo-1,4-dihydroquinolin-2-yl)methyl]sulfanyl}-N-(2-ethoxyphenyl)acetamide], 9%.
Still for that read-out and setting: then `Cc1ccc(C(=O)C(C)Sc2nnc3c(=O)n(-c4ccc(C)c(C)c4)ccn23)cc1C` (centres unmarked) [D02, 7-(3,4-dimethylphenyl)-3-{[1-(3,4-dimethylphenyl)-1-oxopropan-2-yl]sulfanyl}-7H,8H-[1,2,4]triazolo[4,3-a]pyrazin-8-one], with 13%; and `O=C(CSCC(=O)N1CCCc2ccccc21)Nc1ccccc1` [D03, 2-{[2-oxo-2-(1,2,3,4-tetrahydroquinolin-1-yl)ethyl]sulfanyl}-N-phenylacetamide], with −17%; and `CCOC(=O)c1sc(NC(=O)C(CC)Sc2nnc3c(n2)[nH]c2ccccc23)nc1C` (centres unmarked) [D04, ethyl 4-methyl-2-(2-{5H-[1,2,4]triazino[5,6-b]indol-3-ylsulfanyl}butanamido)-1,3-thiazole-5-carboxylate], with 24%.
Turning to `COc1ccc2c(c1)C1(SCCN1C(=O)c1ccccc1C)C(=O)N2Cc1cccc(C(F)(F)F)c1` (centres unmarked) [D05, 5-methoxy-3′-(2-methylbenzoyl)-1-{[3-(trifluoromethyl)-phenyl]methyl}-1,2-dihydrospiro[indole-3,2′-[1,3]thiazolidine]-2-one], the “% long compare to B” value was 4%.
On the same count and under the same terms, for `O=C(NCCSCc1cccc(Cl)c1)C1CCCCn2nnnc21` (centres unmarked) [D07, N-(2-{[(3-chlorophenyl)methyl]-sulfanyl}ethyl)-5H,6H,7H,8H,9H-[1,2,3,4]tetrazolo[1,5-a]azepine-9-carboxamide] the value was −6%; for `COc1ccc(OCc2nnc(SC(C)C(=O)Nc3sc4c(c3C(N)=O)CCC4)n2C)cc1` (centres unmarked) [D8, 2-[2-({5-[(4-methoxyphenoxy)-methyl]-4-methyl-4H-1,2,4-triazol-3-yl}sulfanyl)propana-mido]-4H,5H,6H-cyclopenta[b)thiophene-3-carboxamide], −1%.
Turning to `Cc1cc(C)n2nc(C(=O)N3C[C@@H]4CCN(Cc5nccn5C)[C@@H]4C3)cc2n1` [D08, 2-{[(3aS,6aS)-5-{5,7-dimethylpyrazolo[1,5-a]pyrimidine-2-carbonyl}-octahydropyrrolo[3,4-b]pyrrol-1-yl]methyl}-1-methyl-1H-imidazole], the “% long compare to B” value was 114%.
In the case of `O=C1CC(SCCc2nc3ccccc3[nH]2)C(=O)N1c1cccc(F)c1` (centres unmarked) [D09, 3-{[2-(1H-1,3-benzodiazol-2-yl)ethyl]sulfanyl}-1-(3-fluorophenyl)pyrro-lidine-2,5-dione], the “% long compare to B” value is 73%.
The same measure, in the same setting: for `Cc1ccc(SC2CCN(Cc3cc4n(n3)CCNC4)CC2)cc1` [D10, 4-[(4-methylphenyl)sulfanyl]-1-({4H,5H,6H,7H-pyrazolo[1,5-a]pyrazin-2-yl}methyl)piperidine] the value was −7%; for `Cc1nc[nH]c1CSCCNC(=O)C1CCN(C(=O)C2CCC2)CC1` [D11, 1-cyclobutanecarbonyl-N-(2-{[(4-methyl-1H-imidazol-5-yl)methyl]sulfanyl}-ethyl)piperidine-4-carboxamide], −8%.
